Tested on: rat small intestine
Test: LPS-induced small intestinal FD4 paracellular permeability in vivo (PV and arterial FD4)
Details: for TDG-induced inhibitory effect on PV FD4 levels: LPS 6 hr + TDG 6 hr; for TDG-induced inhibitory effect on PV FD4 levels / Arterial FD4 levels in LPS 6 hr + TDG 6 hr rats: inhibitor iv at t=-10 min or co-perfused; for Arterial FD4 levels in LPS 6 hr + TDG 6 hr rats: t=90 min
Description: LPS treatment. Animals were treated with LPS (5 mg/kg, ip) once at 9 am. For the acute experiments, the animals were fasted overnight and were treated with LPS 1, 3, or 6 hr before the anesthesia for small intestinal perfusion of FD4 as described herein. For the 24-hr experiments, the animals fed ad libitum were treated with LPS 24 hr before anesthesia induction used for the perfusion study. As a control, saline was injected ip at the corresponding time before the experiments. The animal groups were expressed as control, LPS 1 hr, LPS 3 hr, LPS 6 hr, and LPS 24 hr.
Small intestinal perfusion. The small intestinal perfusion from the duodenum, and portal vein (PV) cannulation were prepared by the modified methods. Under isoflurane anesthesia (2%), the animal was placed […] on a recirculating heating block system (Summit Medical Systems, Bend, Oreg., USA) in order to maintain body temperature at 36-37° C. Prewarmed saline was infused via the right femoral vein at 1.08 ml/h using a Harvard infusion pump (Harvard Apparatus, Holliston, Mass., USA). The abdomen was incised, and the PV was cannulated with a polyethylene (PE)-50 tube attached with 23G needle and fixed by methylacrylate adhesive at the insertion site. The tube was filled with heparinized saline enabling repeated blood sampling. Samples of 0.2 ml PV blood were collected every 15 min, followed by flushing with 0.2 ml heparinized saline. A polyethylene tube (diameter 5 mm) filled with PBS was inserted through the forestomach and tied at 0.5 cm caudal from the pyloric ring. After bolus perfusion of 2-ml phosphate buffer saline (PBS, 10 mM, pH 7.4) into the duodenum from the tube, followed by stabilization for ˜30 min, the time was set as t=0. FD4 (0.1 mM) in 10-ml PBS was slowly perfused at t=0 min for 30 sec. Blood samples were collected into a 0.5-ml tubes containing 1-μl each of EDTA (0.5 M) and the dipeptidyl peptidase-4 (DPP4) inhibitor NVP-728 (1 mM), and immediately centrifuged at 5,000× g for 5 min, after which the plasma was stored on ice or at −80 ° C. until use. At 90 min, after collection of PV samples, arterial blood was taken from abdominal aorta, followed by euthanasia by thoracotomy.
Appearance of FD4 into the PV and arterial plasma was assessed by fluorescence intensity measurement using a multi-mode microplate reader (Synergy-2, BioTek Instruments, Inc., Winooski, VT, USA). Fluorescence intensity in t=0 sample as background was subtracted from the fluorescence values measured in other time point samples. FD4 content was calculated according to the standard curve generated each time of measurement.
Drug treatment for the intestinal perfusion study. The following drugs were administered at the time after LPS treatment: the GLP2R partial agonist/antagonist GLP-2(3-33) (1 mg/kg; 280 nmol/kg, ip) was given immediately after LPS treatment (0 hr after LPS treatment); GLP-2 (380 μg/kg; 100 nmol/kg, ip) was given 6 hr after LPS treatment; a stable GLP-2 analog TDG (50 μg/kg; 13.3 nmol/kg) was ip injected 0, 3, 6, or 12 hr after LPS treatment or iv injected at t=0 min just before the perfusion of FD4 solution (6 or 24 hr after LPS treatment). In acute experiments, TDG was iv injected at t=0 min (6 hr after LPS treatment) with or without the pretreatment of the selective IGF1 receptor (IGF1R) tyrosine kinase inhibitor AEW541 (0.1 mg/kg, iv), the selective EGF receptor (EGFR) tyrosine kinase inhibitor PD153035 (10 μg/kg, iv) or PG97-269 (1 mg/kg, iv) at t=−10 min, or the co-perfusion of L-NAME (0.1 mM, pf) with FD4 solution.

| Compound | TDG-induced inhibitory effect on PV FD4 levels | Arterial FD4 levels in LPS 6 hr + TDG 6 hr rats | PV FD4 levels (LPS 6 hr model, TDG 50 μg/kg ip 3 hr after LPS) | PV FD4 levels (LPS 6 hr model, TDG 50 μg/kg iv 6 hr after LPS (t=0 min)) | arterial FD4 levels (LPS 24 hr model, TDG 0 hr after LPS) | PV FD4 levels (LPS 24 hr model, TDG 50 μg/kg ip 0 hr after LPS) | PV FD4 levels (LPS 24 hr model, TDG 50 μg/kg ip 6 hr after LPS) | PV FD4 levels (LPS 24 hr model, TDG 50 μg/kg ip 12 hr after LPS) | PV FD4 levels (LPS 24 hr model, TDG 50 μg/kg iv 24 hr after LPS) | arterial FD4 levels (LPS 24 hr model, TDG 6 hr after LPS) | arterial FD4 levels (LPS 24 hr model, TDG 12 hr after LPS) | arterial FD4 levels (LPS 24 hr model, TDG 24 hr after LPS) | LPS-induced increases in PV FD4 levels at 6 hr (L-NAME 0.1 mM alone co-perfused with FD4, no TDG) |
| --- | --- | --- | --- | --- | --- | --- | --- | --- | --- | --- | --- | --- | --- |
| [Ac-His^1, D-Phe^2, Lys^15, Arg^16, Leu^27]-VIP(1-7)-GRF(8-27) (HFDAVFTNSYRKVLKRLSARKLLQDIL; HELM PEPTIDE1{[ac].H.[dF].D.A.V.F.T.N.S.Y.R.K.V.L.K.R.L.S.A.R.K.L.L.Q.D.I.L.[am]}$$$$V2.0; SMILES CC[C@H](C)[C@H](NC(=O)[C@H](CC(=O)O)NC(=O)[C@H](CCC(N)=O)NC(=O)[C@H](CC(C)C)NC(=O)[C@H](CC(C)C)NC(=O)[C@H](CCCCN)NC(=O)[C@H](CCCNC(=N)N)NC(=O)[C@H](C)NC(=O)[C@H](CO)NC(=O)[C@H](CC(C)C)NC(=O)[C@H](CCCNC(=N)N)NC(=O)[C@H](CCCCN)NC(=O)[C@H](CC(C)C)NC(=O)[C@@H](NC(=O)[C@H](CCCCN)NC(=O)[C@H](CCCNC(=N)N)NC(=O)[C@H](Cc1ccc(O)cc1)NC(=O)[C@H](CO)NC(=O)[C@H](CC(N)=O)NC(=O)[C@@H](NC(=O)[C@H](Cc1ccccc1)NC(=O)[C@@H](NC(=O)[C@H](C)NC(=O)[C@H](CC(=O)O)NC(=O)[C@@H](Cc1ccccc1)NC(=O)[C@H](Cc1c[nH]cn1)NC(C)=O)C(C)C)[C@@H](C)O)C(C)C)C(=O)N[C@@H](CC(C)C)C(N)=O) [PG97-269] | reversed | reduced |  |  |  |  |  |  |  |  |  |  |  |
| CC[C@H](C)[C@H](NC(=O)[C@H](Cc1ccccc1)NC(=O)[C@H](CC(=O)O)NC(=O)[C@H](CCCNC(=N)N)NC(=O)[C@H](C)NC(=O)[C@H](C)NC(=O)[C@H](CC(C)C)NC(=O)[C@H](CC(N)=O)NC(=O)[C@H](CC(=O)O)NC(=O)[C@H](CC(C)C)NC(=O)[C@@H](NC(=O)[C@@H](NC(=O)[C@H](CC(N)=O)NC(=O)[C@H](CCSC)NC(=O)[C@H](CCC(=O)O)NC(=O)[C@H](CC(=O)O)NC(=O)[C@H](CO)NC(=O)[C@H](Cc1ccccc1)NC(=O)[C@H](CO)NC(=O)CNC(=O)[C@H](CC(=O)O)NC(=O)CNC(=O)[C@@H](N)Cc1c[nH]cn1)[C@@H](C)O)[C@@H](C)CC)C(=O)N[C@@H](CC(N)=O)C(=O)N[C@@H](Cc1c[nH]c2ccccc12)C(=O)N[C@@H](CC(C)C)C(=O)N[C@H](C(=O)N[C@@H](CCC(N)=O)C(=O)N[C@H](C(=O)N[C@@H](CCCCN)C(=O)N[C@H](C(=O)N[C@H](C(=O)N[C@@H](CC(=O)O)C(=O)O)[C@@H](C)O)[C@@H](C)CC)[C@@H](C)O)[C@@H](C)CC [TDG] |  |  | reduced | reduced | no significant effect | little effect | reduced | reduced | little effect | inhibited | inhibited | no significant effect |  |
| COC(=O)[C@@H](N)CCCNC(=N)N[N+](=O)[O-] [L-NAME, Nω-nitro-L-arginine methyl ester] | reversed | reduced |  |  |  |  |  |  |  |  |  |  | no effect |

— patent publication US20220257722A1, “COMPOSITIONS AND METHODS OF TREATING AND PREVENTING SYSTEMIC COMPLICATIONS OF ACUTE ILLNESS” (United States Government As Represented By The Department …, priority 2019, published 2022)
